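Interpolation was linear, between the two tested concentrations surrounding the appropriate level; five concentrations were tested over 48 hours in 96-well plates. At the GI50, growth is halved. TGI denotes the concentration required for complete inhibition of growth.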
Legend:
Assay in all cases: NCI-60 cell line screen, 48 h
[1] = tested on: SF-268 CNS
[2] = tested on: PC-3 prostate
[3] = tested on: OVCAR-5 ovarian
[4] = tested on: MDA-N
[5] = tested on: MALME-3M melanoma
[6] = tested on: 786-0 renal
[7] = tested on: OVCAR-4 ovarian
[8] = tested on: HS 578T breast
[9] = tested on: RPMI-8226 leukemia
[10] = tested on: DMS 273 small cell lung
[11] = tested on: KM20L2 colon
[12] = tested on: DLD-1 colon
[13] = tested on: M19-MEL melanoma

Structure (SMILES) | TGI [1] [µM] | TGI [2] [µM] | TGI [3] [µM] | TGI [4] [µM] | TGI [5] [µM] | TGI [6] [µM] | TGI [7] [µM] | TGI [8] [µM] | TGI [9] [µM] | GI50 [1] [µM] | GI50 [2] [nM] | GI50 [3] [µM] | GI50 [5] [nM] | GI50 [7] [nM] | GI50 [8] [µM] | GI50 [9] [nM] | TGI [10] [µM] | TGI [11] [µM] | TGI [12] [µM] | TGI [13] [µM]
COc1cc(C=C2C(C)=NN(c3cccc(Cl)c3)C23SCC(=O)N3c2nc3ccccc3s2)ccc1O (stereo not given) | 57.9 | 58.1 | > 100 | > 100 | 47.6 | > 91.5 | > 100 | 32.4 | 30.7 |  |  |  |  |  |  |  |  |  |  | 
CNC(=O)OC(C)CN1c2ccccc2Sc2ccc(Cl)cc21 (stereo not given) | > 10 | > 10 | > 10 | > 10 | > 10 |  | > 10 | > 10 | > 10 |  |  |  |  |  |  |  |  |  |  | 
CCOC(=O)CSc1nc(N)c2c(-c3ccc(OC)c(OC)c3)c3c(nc2n1)CCCC3 | > 100 | > 100 | > 100 | > 100 | > 100 |  | > 100 | 35.6 | > 100 |  |  |  |  |  |  |  |  |  |  | 
COc1ccc2nc(-n3c(/C=C/c4ccccc4O)nc4ccccc4c3=O)sc2c1 | > 100 | > 100 | > 100 | 36.5 | > 100 | > 100 | > 100 | > 100 | 80.8 |  |  |  |  |  |  |  |  |  |  | 
CC[C@H]1C=CCC[C@@]2(C[C@@H]3CC[C@@H]4[C@H](C(=O)OCCCCCCCCCCCCCCCC(=O)O)[C@]5(CCC[C@@H](C)O5)NC(=[N+]34)N2)O1 | 3.07 | 1.9 | 8.73 | 7.68 | 0.423 | 0.418 | 6.47 | 2.13 | 0.582 |  |  |  |  |  |  |  |  |  |  | 
Cn1c(=O)c2c(nc(-n3nc(-c4ccc(Cl)cc4)cc3N)n2C)n(C)c1=O | > 100 | > 100 | > 100 | > 100 | 83.2 | > 100 | > 100 | > 100 | > 100 |  |  |  |  |  |  |  |  |  |  | 
COc1ccc2nc(-c3ccc(-c4noc(-c5cc(OC)c(OC)c(OC)c5)n4)cc3)[nH]c2c1 | 45.6 | > 100 | 53.8 |  | 7.51 |  | 4.79 | 55.7 | > 100 | 7.13 | 20500 | 16.7 | 1670 | 1880 | 9.49 | 6020 |  |  |  | 
CCCNC(=O)c1cc(NC(=O)c2cc(NC(=O)/C=C/c3ccccc3)c(OC)c(OC)c2)c(OC)c(OC)c1 | 8.68 | 33.5 | 57.1 | > 100 | 8.74 | 18.6 | 8.05 | 6.18 | > 100 |  |  |  |  |  |  |  |  |  |  | 
ONc1ncnc2nc[nH]c12 | > 100 |  | > 100 |  | > 100 | > 100 | > 100 |  | > 100 |  |  |  |  |  |  |  | > 100 | > 100 | > 100 | > 100
CN(C)CC(=O)Nc1ccc(Cn2nnc3c2C(=O)c2nnn(Cc4ccc(NC(=O)CN(C)C)cc4)c2C3=O)cc1 |  | 0.825 | 0.578 |  | 0.266 |  | 0.179 | 2.06 | 0.783 |  | 253 | 0.234 | 115 | 47.3 | 0.337 | 225 |  |  |  | 
N=C(N)c1ccc(-c2ccc(-c3cc(Cl)cc(Cl)c3)o2)nc1 | 3.46 | 3.25 | 3.43 |  |  |  |  | 3.93 | 4.33 | 1.82 | 1740 | 1.73 |  |  | 1.87 | 2030 |  |  |  | 
CCC1C(C#N)=C(N)OC2=C1C(=O)CC(C)(C)C2 (stereo not given) | > 100 | > 100 | > 100 | > 100 | > 100 | > 100 | > 100 | > 100 | > 100 |  |  |  |  |  |  |  |  |  |  | 
CC(=O)Nc1cc([As](=O)(O)O)ccc1O | > 100 | > 100 | > 100 | > 100 | > 100 | > 100 | > 100 | > 100 | > 100 |  |  |  |  |  |  |  |  |  |  | 
CC#CC#C/C=C1/O[C@]2(CCC(OC(C)=O)CO2)[C@@H]2O[C@H]12 (stereo not given in full) | > 100 | 80.9 | 71.2 | > 100 | 35.6 | 46.9 | > 100 | > 100 | 75.2 |  |  |  |  |  |  |  |  |  |  | 
COc1cccc(N=Cc2cc3cc(Br)ccc3nc2Cl)c1 | > 50 | > 50 | > 50 | > 50 | > 50 | 11.3 | 2.63 | > 50 | 41.6 |  |  |  |  |  |  |  |  |  |  | 
CCCc1[nH]c(SCCCCCCCCSc2nc(-c3ccc(F)cc3)c(CCC)[nH]2)nc1-c1ccc(F)cc1 | 16.9 |  | > 100 |  |  |  | 95.4 |  |  |  |  |  |  |  |  |  | > 100 | > 100 |  | > 100
O=C(CCCCCCC(=O)Nc1ccc(N(CCCl)CCCl)cc1)NO | 3.82 | > 100 | 30.6 |  | 5.6 |  | 32.4 | > 100 | > 100 | 1.08 | 3700 | 2.56 | 507 | 3370 | 5.66 | 3020 |  |  |  | 

Structure (SMILES) | TGI [1] [µM] | TGI [2] [µM] | TGI [3] [µM] | TGI [4] [µM] | TGI [5] [µM] | TGI [6] [µM] | TGI [7] [µM] | TGI [8] [µM] | TGI [9] [µM] | GI50 [1] [µM] | GI50 [2] [nM] | GI50 [3] [µM] | GI50 [5] [nM] | GI50 [7] [nM] | GI50 [8] [µM] | GI50 [9] [nM] | TGI [10] [µM] | TGI [11] [µM] | TGI [12] [µM] | TGI [13] [µM]
CCS(=O)(=O)Nc1ccc(Nc2c3ccccc3nc3ccccc23)c(OC)c1 | 12.5 |  | 19.4 |  | 2.37 |  | 16.1 |  | 8.24 |  |  |  |  |  |  |  | 1.85 | 6.44 | 17.3 | 16.6
N=c1c2c(C(N)=O)cn(C3OC(CO)C(O)C3O)c2ncn1O (stereo not given) |  | 1.14 | 1.3 |  | 0.477 | 1.08 | 6.81 | 7.91 |  |  |  |  |  |  |  |  |  |  |  | 
Cc1cccc2nc3c(C(=O)NCCN(C)C)cccc3cc12 | 5.09 |  | 6.59 |  | 2.78 |  | 7.46 |  | 4.19 |  |  |  |  |  |  |  | 3.57 | 4.98 | 7.78 | 4.42
CCSCCC(N)C(=O)O (stereo not given) | > 100 | > 100 | > 100 | > 100 | > 100 | > 100 | > 100 | > 100 | > 100 |  |  |  |  |  |  |  |  |  |  | 
Cc1nc(N)nc(N)c1-c1ccc(Cl)c(Cl)c1 | > 100 | > 100 | > 100 | > 100 | > 87.7 | > 100 | > 100 | 58 | > 100 |  |  |  |  |  |  |  | > 100 | > 100 | 55 | > 100
COC(=O)C1=CC2CCCC1(O)C(C(C)=O)C2 (stereo not given) | > 67.3 | > 100 | > 100 | > 100 | > 100 | 41.3 | > 100 | > 100 | 69.6 |  |  |  |  |  |  |  |  |  |  | 
CCOC(=O)C1(C(=O)OCC)Nc2cccnc2N(C)N1 | > 100 | 67.5 |  | 35.4 | > 100 | 36 | 34.3 | > 100 | 40.8 |  |  |  |  |  |  |  |  |  |  | 
O=S(=O)(O)c1ccc2cccc(N=Nc3c(O)ccc4ccccc34)c2c1 | > 100 | > 100 | > 100 | > 100 | > 100 | > 100 | > 100 | > 100 |  |  |  |  |  |  |  |  |  |  |  | 
COc1ccc(/C(=C2/O[C@@H]([C@H]3COC(C)(C)O3)[C@H]3OC(C)(C)O[C@@H]23)c2cc(OC)c(OC)c(OC)c2)cc1O | 53.6 | > 100 | > 100 |  | > 100 |  | > 100 | 67.9 | 34 | 7.95 | 4120 | 59.6 | 9960 | 37500 | 6.97 | 4820 |  |  |  | 
CC1CNc2ccccc2N=C1NN (stereo not given) | > 100 | > 100 | > 100 | > 100 | > 100 | > 100 | > 100 | > 100 | > 100 |  |  |  |  |  |  |  |  |  |  | 
CC1SC(c2ccccc2)N(CCc2cccs2)C1=O (stereo not given) | 16.1 | 15.7 | 27 |  | 26.1 |  | 13 | 38.1 | 8.07 | 3.56 | 2680 | 10.3 | 5470 | 2450 | 4.52 | 2440 |  |  |  | 
COc1ccc(/C=C2\C(=O)N(C3OC(COC(C)=O)C(OC(C)=O)C(OC(C)=O)C3OC(C)=O)c3ccccc3N=C2N)cc1 (stereo not given) | > 100 | 83.3 | > 100 | 26 | 84.5 | 37.5 | > 100 | > 100 | 37.5 |  |  |  |  |  |  |  |  |  |  | 
CCOC(=O)c1nc2ccc(Cl)cc2c2c1Cc1ccccc1-2 | > 100 |  | > 100 |  |  | > 100 | > 100 |  | > 100 |  |  |  |  |  |  |  | > 100 | > 100 | > 100 | > 100
O=C(N/N=C(/c1ccccc1)C(F)(F)F)c1ccncc1 |  | > 100 | > 100 | > 100 | > 100 |  |  | > 100 | > 100 |  |  |  |  |  |  |  |  |  |  | 
CN1CC[C@@]2(c3cccc(O)c3)CC(=O)/C(=C/c3ccccc3)[C@H]1C2 | 19.7 | 14.4 | 32.2 | 16.4 | 33.5 | 25 | 22.2 | 9.81 | 7.04 |  |  |  |  |  |  |  |  |  |  | 
CCN(CC)CC(C)Nc1ccc([N+](=O)[O-])c2sc3ccccc3c(=O)c12 (stereo not given) | 18.5 | > 100 | > 100 |  | 3.76 |  | > 100 | 13.4 |  | 2.71 | 2520 | 3.63 | 1310 | 3480 | 2.72 |  |  |  |  | 
COc1ccc2nc(N/N=C/C(C)=N/Nc3cc(C)c4cc(OC)ccc4n3)cc(C)c2c1 | 60.8 | 45.6 | 49.5 | 55.5 | 76.4 | 28 | 35.6 | 68.8 | 19.2 |  |  |  |  |  |  |  |  |  |  | 

— PubChem BioAssay (NCI)
